# Earlier results in US12440459B2, “Norepinephrine compositions and methods therefor” (Nevakar Injectables Inc., priority 2017, dated 2025).
# Conditions: Int J Toxicol. 2002; 21 Suppl 2:19-94
compound,measurement,value
COc1ccc(O)c(C(C)(C)C)c1 [butylated hydroxyl anisole],renal and hepatic damage,some renal and hepatic damage
